Data as given in a melting point compilation (Tetko et al.).

Conditions: a range is the spread between reports

| SMILES | melting point [°C] |
| --- | --- |
| COc1ccc2cc(OC)ccc2c1 | 150 to 153 |
| CCCOC(=O)CC | -76 to -75.9 |
| CC(C)(C)O | 25 to 26 |
| CN(C)c1ccccc1 | 2 to 3 |
| ClC(Cl)(Cl)Cl | -23 to -22.9 |
| CO[C@@H]1O[C@H](CO)[C@H](O)[C@H](O)[C@H]1O | 172 to 177 |
| COc1cc(C#N)ccc1O | 86 to 87 |
| O=[N+]([O-])c1ccccc1CO | 72 to 74 |
| CCOC(=O)CC(C)=O | -45 to -43 |
| CCOC(=O)Cc1c[nH]c2ccccc12 | 43 to 44.5 |
| CCCCCCOC=O | -63 to -62.6 |
| CCNc1nc(NC(C)(C)C)nc(SC)n1 | 104 to 105 |
| ClCCBr | -18 to -16.7 |
| OCc1ccc(Cl)c(Cl)c1 | 36 to 38 |
| Nc1cccc(Cl)c1 | -10.4 to -10 |
| CCCCCCC(=O)Cl | -84 to -83.8 |
| CC(=O)Oc1ccccc1[N+](=O)[O-] | 40 to 40.5 |
| CCCC(=O)CC | -55.5 to -55 |
| C1COCCO1 | 11.8 to 12 |
| CC(=O)c1ccc(-c2ccccc2)cc1 | 120 to 122 |
| COc1ccc(OC)c([N+](=O)[O-])c1 | 71 to 72.5 |
| C1CSCCS1 | 111 to 112 |
| NNC(=O)c1ccc(N)cc1 | 226 to 228 |
| O=C(O)[C@@H]1CCCN1C(=O)OCc1ccccc1 | 76 to 77 |
| Cc1nc2ccccc2s1 | 12 to 14 |

| SMILES | melting point [°C] |
| --- | --- |
| CCCCS(=O)(=O)CCCC | 44 to 45 |
| CC(C)CCOC=O | -93.5 to -93 |
| CCCC(C)(C)O | -103 to -102 |
| CCOc1ccc(C=O)cc1OC | 61 to 64.5 |
| CCC(O)(CC)CC | -13 to -12.5 |
| Cc1cc(C)cc(C(=O)O)c1 | 170 to 171 |
| Nc1ccc([N+](=O)[O-])cc1[N+](=O)[O-] | 176 to 180 |
| C=Cc1ccc(-c2ccccc2)cc1 | 116 to 119 |
| CCC1(C)CCCC1 | -144 |
| O=C(O)c1cc(Br)cc(Br)c1O | 226 to 228 |
| [O-][N+](=Nc1ccccc1)c1ccccc1 | 35 to 36 |
| COc1ccccc1C(=O)c1ccccc1 | 37 to 41 |
| Nc1ccc(C(=O)NCC(=O)O)cc1 | 198 to 200 |
| OC1CCCC1 | -20 to -16.2 |
| O/N=C(\c1ccccc1)C(O)c1ccccc1 (stereo unspecified) | 151 to 154 |
| ClCCOCCOCCCl | -32 to -31.5 |
| CC(=O)Nc1ccc(C#N)cc1 | 205 to 207 |
| O=C(O)c1cc(Br)ccc1Br | 155 to 157 |
| CCCCCCCCCCCCCC | 5.5 to 6 |
| NC(=O)c1ccc(N)nc1 | 246 to 247 |
| CN(C)c1ccc(C(=O)c2ccccc2)cc1 | 89 to 92.5 |
| O=Cc1cc(Br)cc(Br)c1O | 83 to 86 |
| CCCCCCI | -75 to -74.2 |
| Nc1ccc2[nH]ncc2c1 | 175 to 176 |
| Cc1c(C(=O)O)cc([N+](=O)[O-])cc1[N+](=O)[O-] | 205 to 206 |

| SMILES | melting point [°C] |
| --- | --- |
| Cc1ccc(NC(=O)c2ccccc2)cc1 | 156 to 158 |
| CCCC(N)=O | 115 to 116 |
| Oc1ccc(Cl)c(O)c1 | 106 to 107 |
| CC(=O)Nc1ccccc1O | 205 to 208 |
| O=C(O)CCBr | 60 to 62.5 |
| O=C(O)C1CC1 | 15.5 to 18.5 |
| c1ccc(Cc2ccc(-c3ccccc3)cc2)cc1 | 85 to 86 |
| NNC(=O)c1cccc(Br)c1 | 156 to 158 |
| C=CCCCCCC | -102 |
| Cc1ccccn1 | -70 to -66.7 |
| Nc1ccccc1[N+](=O)[O-] | 71 to 73 |
| NC(=O)C(F)(F)F | 72.5 to 73 |
| CCCCCC(=O)OCCC | -69 to -68.7 |
| C=C(C)c1ccccc1 | -23.2 to -23 |
| NNC(=O)c1ccco1 | 79 to 80 |
| C#CCCCC | -132 |
| CCOP(=S)(OCC)Oc1nc(Cl)c(Cl)cc1Cl | 41.5 to 42.5 |
| CCCCNC(=S)NCCCC | 64 to 66 |
| O=C(C=Cc1ccccc1)OCc1ccccc1 | 35 to 39 |
| O=[N+]([O-])c1cccc(-c2ccccc2)c1 | 59 to 62 |
| Cc1ccc(OC(=O)c2ccccc2)cc1 | 70 to 71.5 |
| O=c1c(O)c(-c2ccccc2)oc2cc(O)cc(O)c12 | 214 to 215 |
| c1ccc2ncncc2c1 | 47 to 48 |
| c1ccc2c(c1)Oc1ccccc1O2 | 122 |
| CCCCCCC#N | -64 to -63 |

| SMILES | melting point [°C] |
| --- | --- |
| CCC(C)(C)C(C)C | -101 |
| C=Cc1cccc(C(=O)O)c1 | 95 to 96 |
| OCC(O)C(O)CO (stereo unspecified) | 122 |
| Nc1ccc(Oc2ccccc2)cc1 | 83 to 84 |
| CNC(C)=O | 27 to 28 |
| O=C(O)CC(O)(CC(=O)O)C(=O)O | 153 to 154 |
| CC(C)=C(C)C | -75 to -74 |
| Cc1cccc(I)c1 | -27.2 to -27 |
| O=Cc1ccccc1F | -45 to -44.5 |
| NNc1cc(Cl)ccc1Cl | 102 to 104 |
| c1cnc2[nH]ccc2c1 | 105 to 106 |
| Cc1cc(O)c(C(C)C)cc1Cl | 59 to 63 |
| Nc1c(Cl)cc(Cl)cc1Br | 80 to 83.5 |
| FC(F)(F)c1ccc(Cl)cc1 | -36 to -33 |
| Cc1cccc(C#N)c1 | -27 to -23 |
| O=C(O)Cc1c(Cl)cccc1Cl | 159 to 160 |
| c1ccc2sccc2c1 | 30 to 32 |
| O=C(O)COc1cccc(Cl)c1 | 108 to 110 |
| NNC(=O)NN | 154 to 158 |
| O=[N+]([O-])c1ccc(O)c(Cl)c1 | 106 to 110 |
| Clc1ccc(I)cc1 | 54 to 57 |
| OC1CCCCCCCCC1 | 39.9 to 40.5 |
| CC(C)CNCC(C)C | -77 to -73.5 |
| CCCCCCCCCCCCCCCCCCCCCCCCCCCCCCCCCCCC | 76 to 76.5 |
| Clc1cc(Cl)cc(I)c1 | 56 to 57 |

| SMILES | melting point [°C] |
| --- | --- |
| O=C1c2ccccc2C(=O)c2c(Cl)cccc21 | 159 to 163 |
| CC#CCC(C)C | -93 to -92.9 |
| O=C(O)Cc1ccc(O)cc1 | 149 to 152 |
| COc1cccc(OC)c1C(C)=O | 69 to 70 |
| C=CC | -185 |
| O=C(c1ccc(O)cc1O)c1ccc(O)cc1O | 201 to 202 |
| CC(=O)c1cccc(C#N)c1 | 98 to 99 |
| CC(C)=CC(C)C | -128 |
| CC(=O)c1cccc(N)c1 | 96 to 98.5 |
| CCC1CCC1 | -143 |
| CC12C=CC(=O)C=C1CCC1C2C(=O)CC2(C)C1CCC2(O)C(=O)CO (stereo unspecified) | 234 to 237 |
| c1ccc(CSSCc2ccccc2)cc1 | 70 to 71.5 |
| CCCCCCCCC(C)O (stereo unspecified) | -5 to -2 |
| COc1cc(Cl)cc(OC)c1 | 34 to 35 |
| O=C1CCC(=O)N1 | 124 to 126 |
| COc1ccc(O)cc1 | 55 to 57 |
| Ic1cccc(I)c1 | 36 to 40.4 |
| CC1CCCC1(C)C (stereo unspecified) | -22 to -21.6 |
| Oc1cccc(O)c1 | 110 to 111 |
| CCOc1cc(C=O)ccc1O | 77 to 77.5 |
| CCCCCCOCCO | -45.1 to -42 |
| CC(C)CCCCC(C)C | -55 to -54 |
| O=C1c2ccccc2-c2cccc3cccc1c23 | 170 to 173 |
| CC(=O)Nc1cccc([N+](=O)[O-])c1 | 152 to 155 |
| C1=CC=CCC=C1 | -80 to -79.5 |

| SMILES | melting point [°C] |
| --- | --- |
| N#Cc1ccccc1[N+](=O)[O-] | 108 to 109 |
| Cc1ccc2c(c1)C(=O)c1ccccc1C2=O | 172 to 177 |
| Nc1cc([N+](=O)[O-])ccc1Cl | 118 to 121 |
| CC(C)C(=O)OC(=O)C(C)C | -56 to -53.5 |
| Nc1ccccc1Oc1ccccc1 | 45.8 to 47 |
| COC(=O)c1ccc(C#N)cc1 | 62 to 67 |
| O=[N+]([O-])c1ccccc1 | 5 to 6 |
| CN(C)c1ccc(Br)cc1 | 54 to 55 |
| Cc1ccccc1Cc1ccccc1 | 6.6 to 7 |
| CCC(c1ccccc1)c1ccccc1 | 13.3 to 14 |
| Cn1nnnc1S | 122 to 127 |
| CCCCBr | -112 |
| ClC/C=C/CCl | 2 to 3.5 |
| CC1CCCCC1 | -127 to -126 |
| CCC(CC)(CC)CC | -33.1 to -33 |
| OCc1cc(Cl)cc(Cl)c1 | 78 to 80.5 |
| c1ccc2c(c1)Cc1ccccc1C2 | 108 to 111 |
| CCC1(O)CC2CN(CCc3c([nH]c4ccccc34)C(C(=O)OC)(c3cc4c(cc3OC)N(C=O)C3C(O)(C(=O)OC)C(OC(C)=O)C5(CC)C=CCN6CCC43C65)C2)C1 (stereo unspecified) | 219 |
| O=C1CCCC1 | -51.9 to -51 |
| COC(N)=O | 54 to 55 |
| CCCCCCCCCCCCCCCCCCCCO | 64 to 66.1 |
| c1cc[nH]c1 | -23.4 |
| Cc1cc(O)ccc1Br | 59 to 64 |
| CNC1=Nc2ccc(Cl)cc2C(c2ccccc2)=[N+]([O-])C1 | 236 |
| Cc1cc(O)cc(O)c1 | 107 to 108 |

| SMILES | melting point [°C] |
| --- | --- |
| Nc1ccncc1 | 158 to 159 |
| O=C(O)c1ccnc2ccccc12 | 254 |
| c1ccc2nc3ccccc3cc2c1 | 108 to 109 |
| Nc1c(Cl)cc([N+](=O)[O-])cc1Cl | 189 to 191 |
| COC(=O)c1ccc([N+](=O)[O-])cc1 | 95 to 96 |
| FC(F)(F)c1ccc(Cl)nc1 | 31 to 33 |
| Cc1cc(C)cc(O)c1 | 62.5 to 65.5 |
| O=C(O)c1ccc(O)c(Cl)c1 | 169 to 171 |
| O=[N+]([O-])c1ccc(Cl)c(Cl)c1 | 39 to 43 |
| Brc1cccnc1 | -27.3 to -27 |
| CCCCCCCC1CCCCC1 | -31 to -30 |
| Cc1c[nH]c2ccccc12 | 95 |
| COc1ccccc1-c1ccccc1 | 29 to 31 |
| CCc1nc(C)c[nH]1 | 47 to 50.5 |
| Cc1ccc(CCl)cc1 | 4 to 5 |
| Nc1cnc2ccccc2c1 | 91.5 to 94 |
| Nc1ccc([N+](=O)[O-])cn1 | 187 to 188 |
| C(=C\c1ccccc1)/c1ccccc1 | 123 to 126 |
| CCc1ccc(O)cc1O | 97 to 98.5 |
| Nc1cccc2c1C(=O)c1ccccc1C2=O | 250 to 254 |
| C=C(CC(=O)OC)C(=O)OC | 36 to 38 |
